What was measured:
Assay type in all cases: in vivo
[1] = system: Frankliniella occidentalis (Western Flower Thrips); experiment: Example B4: Frankliniella occidentalis, sprayed sunflower leaf discs, mixed ages; settings: foliar, 168 h, application rate of 200 ppm, population of mixed ages, 7 days after infestation
Experimental: Example B4: Frankliniella occidentalis (Western Flower Thrips)
(§1) Sunflower leaf discs were placed on agar in 24-well microtiter plates and sprayed with aqueous test solutions prepared from 10′000 DMSO stock solutions. After drying the leaf discs were infested with a Frankliniella population of mixed ages. The samples were assessed for mortality 7 days after infestation.

[2] = system: Bemisia tabaci (Cotton White fly); experiment: Example B1: Bemisia tabaci, sprayed cotton leaf discs, adult mortality; settings: foliar, 144 h, application rate of 200 ppm, adult white flies, 6 days after incubation
Experimental: Example B1: Bemisia tabaci (Cotton White fly)
Cotton leaf discs were placed on agar in 24-well microtiter plates and sprayed with aqueous test solutions prepared from 10′000 ppm DMSO stock solutions. After drying the leaf discs were infested with adult white flies. The samples were checked for mortality 6 days after incubation.

[3] = system: Thrips tabaci (Onion Thrips); experiment: Example B10: Thrips tabaci, sprayed sunflower leaf discs, mixed ages; settings: foliar, 144 h, application rate of 200 ppm, thrips population of mixed ages, 6 days after infestation
Experimental: Example B10: Thrips tabaci (Onion Thrips)
as §1, with “10′000 ppm” for “10′000”, “thrips” for “Frankliniella”, “6” for “7”

[4] = system: Plutella xylostella (Diamond Back Moth); experiment: Example B6: Plutella xylostella, treated artificial diet, L2 larvae; settings: 120 h, application rate of 200 ppm, 5 days after infestation, read-out: effect in at least one of the two categories (mortality or growth inhibition)
Experimental: Example B6: Plutella xylostella (Diamond Back Moth)
(§2) 24-well microtiter plates with artificial diet were treated with aqueous test solutions prepared from 10′000 ppm DMSO stock solutions by pipetting. After drying, the plates were infested with L2 larvae (10 to 15 per well). The samples were assessed for mortality and growth inhibition in comparison to untreated samples 5 days after infestation.

[5] = system: Euschistus heros (Neotropical Brown Stink Bug); experiment: Example B3: Euschistus heros, sprayed soybean leaf, N-2 nymphs; settings: 120 h, application rate of 200 ppm, 5 days after infestation, read-out: effect in at least one of the two categories (mortality or growth inhibition)
Experimental: Example B3: Euschistus heros (Neotropical Brown Stink Bug)
Soybean leaf on agar in 24-well microtiter plates were sprayed with aqueous test solutions prepared from 10′000 ppm DMSO stock solutions. After drying the leaf were infested with N-2 nymphs. The samples were assessed for growth inhibition in comparison to untreated samples 5 days after infestation.

[6] = system: Spodoptera littoralis (Egyptian Cotton Leaf Worm); experiment: Example B8: Spodoptera littoralis, systemic test, compound in agar taken up by lettuce roots; settings: 144 h, test rate of 12.5 ppm, systemic via lettuce roots, 6 days after infestation, read-out: effect in at least one of the three categories (mortality, anti-feedancy, or growth inhibition)
Source text: Example B8: Spodoptera littoralis (Egyptian Cotton Leaf Worm)
Test compounds were applied by pipette from 10′000 ppm DMSO stock solutions into 24-well plates and mixed with agar. Lettuce seeds were placed on the agar and the multi well plate was closed by another plate which contains also agar. After 7 days the roots have absorbed the compound and the lettuce has grown into the lid plate. The lettuce leafs were now cut off into the lid plate. Spodoptera eggs were pipetted through a plastic stencil on a humid gel blotting paper and the plate closed with it. The samples were assessed for mortality, anti-feedant effect and growth inhibition in comparison to untreated samples 6 days after infestation.

[7] = system: Myzus persicae (Green Peach Aphid); experiment: Example B5: Myzus persicae, sprayed sunflower leaf discs, mixed ages; settings: foliar, 144 h, application rate of 200 ppm, aphid population of mixed ages, 6 days after infestation
Experimental: Example B5: Myzus persicae (Green Peach Aphid)
Sunflower leaf discs were placed on agar in a 24-well microtiter plate and sprayed with aqueous test solutions prepared from 10′000 ppm DMSO stock solutions. After drying, the leaf discs were infested with an aphid population of mixed ages. The samples were assessed for mortality 6 days after infestation.

[8] = system: Diabrotica balteata (Corn Root Worm); experiment: Example B2: Diabrotica balteata, sprayed maize sprouts, L2 larvae; settings: 96 h, application rate of 200 ppm, 4 days after infestation
Experimental: Example B2: Diabrotica balteata (Corn Root Worm)
as §2, with “Maize sprouts, placed on an agar layer in 24-well” for “24-well”, “plates” for “plates with artificial diet”, “spraying.” for “pipetting.”, “(6” for “(10”, “10” for “15”, “4” for “5”

[9] = system: Spodoptera littoralis (Egyptian Cotton Leaf Worm); experiment: Example B7: Spodoptera littoralis, sprayed cotton leaf discs, L1 larvae; settings: foliar, 72 h, application rate of 200 ppm, 3 days after infestation, read-out: control (at least one of mortality, anti-feedant effect, and growth inhibition)
Experimental: Example B7: Spodoptera littoralis (Egyptian Cotton Leaf Worm)
Cotton leaf discs were placed on agar in 24-well microtiter plates and sprayed with aqueous test solutions prepared from 10′000 ppm DMSO stock solutions. After drying the leaf discs were infested with five L1 larvae. The samples were assessed for mortality, anti-feedant effect, and growth inhibition in comparison to untreated samples 3 days after infestation. Control of Spodoptera littoralis by a test sample is when at least one of mortality, anti-feedant effect, and growth inhibition is higher than the untreated sample.

[10] = system: Tetranychus urticae (Two-Spotted Spider Mite); experiment: Example B9: Tetranychus urticae, sprayed bean leaf discs, mixed population; settings: foliar, 192 h
Experimental: Example B9: Tetranychus urticae (Two-Spotted Spider Mite)
Bean leaf discs on agar in 24-well microtiter plates were sprayed with aqueous test solutions prepared from 10′000 ppm DMSO stock solutions. After drying the leaf discs were infested with a mite population of mixed ages. The samples were assessed for mortality on mixed population (mobile stages) 8 days after infestation.

CCS(=O)(=O)c1cc(-c2cc(F)cc(F)c2)cnc1-c1nc2cc(C(F)(F)F)nnc2n1C [P1, 6-[5-(3,5-difluorophenyl)-3-ethylsulfonyl-2-pyridyl]-7-methyl-3-(trifluoromethyl)imidazo[4,5-c]pyridazine]
≥ 80%: mortality at 200 ppm [1] | mortality at 200 ppm [2] | mortality at 200 ppm [3] | percent effect (mortality or growth inhibition) at 200 ppm [4] | percent effect (mortality or growth inhibition) at 200 ppm [5] | percent control (mortality, anti-feedancy or growth inhibition) at 12.5 ppm [6] | mortality at 200 ppm [7] | mortality at 200 ppm [8] | mortality at 200 ppm [9]

CCS(=O)(=O)c1cc(-c2ccc(C(F)(F)F)cc2)ccc1-c1nc2cc(C(F)(F)F)nnc2n1C [P5]
≥ 80%: percent effect (mortality or growth inhibition) at 200 ppm [4] | mortality at 200 ppm [8] | mortality at 200 ppm [9] | mortality at 200 ppm [10]

CCS(=O)(=O)c1cc(-c2ccc(C(F)(F)F)cc2)cnc1-c1nc2cc(C(F)(F)F)nnc2n1C [P3]
≥ 80%: mortality at 200 ppm [1] | percent effect (mortality or growth inhibition) at 200 ppm [4] | percent effect (mortality or growth inhibition) at 200 ppm [5] | mortality at 200 ppm [7] | mortality at 200 ppm [8] | mortality at 200 ppm [9]

CCS(=O)(=O)c1cc(-n2ccc(C(F)(F)F)n2)cnc1-c1nc2cc(C(F)(F)F)nnc2n1C [P2, 6-[3-ethylsulfonyl-5-[3-(trifluoromethyl)pyrazol-1-yl]-2-pyridyl]-7-methyl-3-(trifluoromethyl)imidazo[4,5-c]pyridazine]
≥ 80%: mortality at 200 ppm [2] | mortality at 200 ppm [3] | percent effect (mortality or growth inhibition) at 200 ppm [4] | percent effect (mortality or growth inhibition) at 200 ppm [5] | mortality at 200 ppm [7] | mortality at 200 ppm [8] | mortality at 200 ppm [9]

CCSc1cc(-c2ccc(C(F)(F)F)cc2)ccc1-c1nc2cc(C(F)(F)F)nnc2n1C [P4, 6-[2-ethylsulfanyl-4-[4-(trifluoromethyl)phenyl]phenyl]-7-methyl-3-(trifluoromethyl)imidazo[4,5-c]pyridazine]
≥ 80%: percent effect (mortality or growth inhibition) at 200 ppm [4] | mortality at 200 ppm [8] | mortality at 200 ppm [9]
